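Where inhibition never reached the appropriate level, the endpoint shown equals the highest concentration tested. Otherwise, values were interpolated linearly from a five-concentration, 48-hour dose response in 96-well plates. GI50: concentration for 50% inhibition of growth.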 Activity calls are given as the source filed them. No stated cut-off is given here; in the data, active = GI50 up to about 1.1 µM and inactive = higher.

The test deals with Hs-578T. The experiment in a line: NCI anticancer screen, dose series, 48 h.
Take `CC(C)(C)OC(=O)CCC1NC(=O)[C@@H]2Cc3c([nH]c4ccccc34)C(C3CCCCC3)N2C1=O` (some centres undefined): the GI50 is 20.8 µM (inactive).
In the case of `Cc1[nH]c(C)c(CN(C)C)c1CN(C)C` it was > 100 µM (inactive); in that of `C=C1c2nc3ccccc3n2C=C(c2ccc(C)cc2)N1c1ccc(OC)cc1`, > 77.4 µM (inactive); in that of `CN1CCc2cc(N)cc3c2C1Cc1ccc(O)c(O)c1-3` (centres undefined), 53.5 µM (inactive).
In the case of `CC(=N/NC(N)=S)/C(C)=N/NC(N)=S` it was > 100 µM (inactive); in that of `CCCCCCOc1ccc(C(=O)NOC)cc1`, > 100 µM (inactive); in that of `COc1ccc(C2=NNC(=O)c3ccccc3N2c2nc(-c3cccs3)nc3cc(OC)c(OC)cc23)cc1`, 3.85 µM (inactive).
As for `Fc1cc(-c2cc(-c3ccc4c(c3)OCO4)n[nH]2)c(Cl)cc1Cl`, the GI50 was 3.99 µM (inactive).
In the case of `O=c1ccn(C2OC(CN(O)CCC3C(CO)OC(n4ccc(=O)[nH]c4=O)C3O)C(O)C2O)c(=O)[nH]1` (centres undefined) it was > 100 µM (inactive); in that of `COC(=O)C1CCOC(C)N1C(=O)OC(C)(C)C` (centres undefined), > 100 µM (inactive).
Regarding `COc1ccccc1-c1cc(=O)c2ccccc2n1C1CC1`, the GI50 was 5.3 µM (inactive).
In the case of `C[N+]1(C)CCC(C#N)(c2ccccc2)CC1` it was > 100 µM (inactive).
For the molecule `COc1cc(S(=O)(=O)Nc2ccc(-c3csc(N4C(=O)C(C)SC4c4ccccc4)n3)cc2)ccc1Cl` (centres undefined), the GI50 was 0.794 µM (active).
Consider `CCN(CC)CCCC(C)Nc1cc(/C=C/c2ccc(Cl)cc2)nc2cc(N(C)C)ccc12` (centres undefined), for which the GI50 was 2.37 µM (inactive).
In the case of `COc1ccc(/C=C2/N/C(=N\N=C/C(O)C(O)C(O)C(O)CO)NC2=O)cc1` (centres undefined) it was > 100 µM (inactive); in that of `COc1ccc2nc3cc([N+](=O)[O-])ccc3c(Nc3ccc(S(=O)(=O)NC(C)=O)cc3)c2c1`, 85.9 µM (inactive).
Consider `COc1ccc(C(=O)N(C(=O)N2CCN(c3ccccc3)CC2)S(=O)(=O)c2ccccc2)cc1`, for which the GI50 is 25.1 µM (inactive).
Regarding `C[N+]1=C2[B-](C(C)(C)C)=[N+](C(C)(C)C)[B-]2(C(C)(C)C)[N+](C)=C2[B-](C(C)(C)C)=[N+](C(C)(C)C)[B-]21C(C)(C)C` (centres undefined), the GI50 is > 100 µM (inactive).
In the case of `CC(=O)C1(O)CCC2(O)C3(O)CC=C4CC(O)CCC4(C)C3CC(OC(=O)c3ccc(O)cc3)C12C` (centres undefined) it was > 100 µM (inactive); in that of `Cc1ccsc1/C=N/Nc1ncccn1`, > 100 µM (inactive).
In the case of `CCOC(=O)/C=C1\C[C@H](NC(=O)OCc2ccccc2)C(=O)N1CC(=O)OCC` it was > 100 µM (inactive); in that of `N#CCCC(C=O)(CCC#N)CCC#N`, > 100 µM (inactive).
In the case of `BrCC[P+](c1ccccc1)(c1ccccc1)c1ccccc1` it was 20.4 µM (inactive); in that of `Clc1ccc(C2=NCON=C2c2ccc(Cl)cc2)cc1`, 13.8 µM (inactive).
For the molecule `C/C(=N/NC(=S)Nc1cccc(Cl)c1)c1cccc(/C(C)=N\NC(=S)Nc2cccc(Cl)c2)n1`, the GI50 is > 23.8 µM (inactive).
In the case of `Cc1nn(C(=O)c2ccc(Cl)cc2)c2c1C(c1ccccc1[N+](=O)[O-])SC(=N)N2` (centres undefined) it was > 10 µM (inactive); in that of `CSc1ccc(/C=C2\N=C(c3ccccc3)N(c3nc4cc(C)c(C)cc4s3)C2=O)cc1`, 28.4 µM (inactive); in that of `COc1ccc2c(c1)C(N)=C(Cc1ccncc1)C2=O`, > 100 µM (inactive).
`O=[N+]([O-])/C(Cl)=C(\NCCO)C(Cl)=C(Cl)Cl`: the GI50 is > 65.5 µM (inactive).
In the case of `COC1=CC(=O)C2=C(C1=O)[C@H]1CC[C@]3(C)[C@@H](OC(C)=O)CC[C@H]3[C@@H]1CC2` it was 38.3 µM (inactive); in that of `COC(=O)C(NC(=O)c1ccccc1)c1ccco1` (centres undefined), > 100 µM (inactive).
Take `N[C@H]1CCC[C@@H](O)C1O` (some centres undefined): the GI50 was > 100 µM (inactive).
In the case of `C=C(C)[C@@H]1CC[C@]2(C)CC[C@]3(C)[C@H](CC[C@@H]4[C@@]5(C)CC[C@H](OC(=O)c6ccccc6)C(C)(C)[C@@H]5CC[C@]43C)[C@@H]12` it was > 100 µM (inactive); in that of `CCCCCCCCC/C=C1\CC(CO)(COC(=O)C2CCCCC2)OC1=O` (centres undefined), 16.4 µM (inactive).

Source of the values: ChEMBL document CHEMBL1201862, “PubChem BioAssay data set” (2004).
